Assay results taken from patent US20080021054A1, “COMPOSITIONS AND TREATMENTS FOR INHIBITING KINASE AND/OR HMG-COA REDUCTASE” (priority 2004, published 2008).
Where “and” joins values, the source holds several entries; their conditions need not be identical. Identical values can stand only once.

System: oxazolone-induced mouse ear swelling
Assay: Model for inhibition of topical inflammation (oxazolone-induced mouse ear swelling)
Assay type: in vivo, BALB/c male mice
Conditions: topical to right ear, ear thickness 24 hours after oxazolone challenge
Method: Left ears were untreated. The thickness of both ears of each animal was measured with a Dyer model micrometer gauge 24 hours after oxazolone challenge, and the net increase in thickness of right ears versus left ears was calculated for each animal. Percent inhibition was calculated according to the formula: [(Iv-It)/Iv]×100, where Iv and It respectively refer to the average net increase in right ear thickness (mm) for vehicle and candidate compound treated mice.

Row | Structure (SMILES) | % Inh. (dose 2 × 0.3 mg) | % Inh. (dose 2 × 0.3 mg, listed as atorvastatin lactone) | % Inh. (dose 2 × 1 mg) | % Inh. (dose 2 × 2 mg)
1 | COc1ccc2c(c1)c(CC(=O)O)c(C)n2C(=O)c1ccc(Cl)cc1 [Indomethacin] | 44% | – | – | –
2 | CC(C)c1nc(N(C)S(C)(=O)=O)nc(-c2ccc(F)cc2)c1/C=C/[C@@H](O)C[C@@H](O)CC(=O)O [Rosuvastatin sodium] | 20% | – | – | –
3 | CC(C)n1c(/C=C/C(O)CC(O)CC(=O)O)c(-c2ccc(F)cc2)c2ccccc21 (stereo not shown) [Fluvastatin sodium] | 28% | – | – | –
4 | CC(C)c1c(C(=O)Nc2ccccc2)c(-c2ccccc2)c(-c2ccc(F)cc2)n1CC[C@@H]1C[C@@H](O)CC(=O)O1 [Atorvastatin lactone] | 40% | 50% and 58% and 40% | 58% | 50%
5 | CC[C@H](C)C(=O)O[C@H]1C[C@H](O)C=C2C=C[C@H](C)[C@H](CC[C@@H](O)C[C@@H](O)CC(=O)O)[C@H]21 [Pravastatin sodium] | 24% | – | – | –
6 | CC(C)c1c(C(=O)Nc2ccccc2)c(-c2ccccc2)c(-c2ccc(F)cc2)n1CC[C@@H](O)C[C@@H](O)CC(=O)O [Atorvastatin sodium] | 9% | – | 31% | 63%
7 | O=C([O-])C[C@H](O)C[C@H](O)/C=C/c1c(C2CC2)nc2ccccc2c1-c1ccc(F)cc1.O=C([O-])C[C@H](O)C[C@H](O)/C=C/c1c(C2CC2)nc2ccccc2c1-c1ccc(F)cc1.[Ca+2] [Pitavastatin calcium] | 9% | – | – | 60%
